The results in this text go back to patent US9649319B2, “Process for manufacturing sterile brinzolamide ophthalmic suspension” (INDOCO REMEDIES LIMITED, priority 2012, dated 2017).

The data set is described as follows: Related Substance data of Brinzolamide after sterilization (Gamma irradiation vs Dry heat sterilization). It is filed as physicochemical. As to conditions: for Impurities: Any individual impurity / Impurities: Related Compound B / Impurities: Related Compound C / Impurities: Related Compound D: Limit NMT 0.3%; for Impurities: Total: Limit NMT 1.0%. How it is done: The active pharmaceutical ingredient according to the present invention after Dry Heat Sterilization will essentially contain the same physico-chemical properties, its chemical purity and physical form as the starting material from which it is prepared. The degradation, especially chemical degradation caused by the present sterilization process is negligible. A table of comparison for Related Substance data of Brinzolamide after sterilization by Gamma irradiation and Dry heat sterilization is presented below.

[1] abbreviates: after Gamma irradiation sterilization.

With `CCN[C@H]1CN(CCCOC)S(=O)(=O)c2sc(S(N)(=O)=O)cc21` [Brinzolamide, R 4-ethylamino-3,4-dihydro-2-(3-methoxy)propyl-2H-thieno[3,2-e]-1,2-thiazin-6-sulfonamide 1,1 dioxide], where the note is “after Dry Heat Sterilization”, the “Impurities: Any individual impurity” value came out at 0.09%, the “Impurities: Related Compound B” value is 0.01%, the “Impurities: Related Compound C” value is reported as 0.06% and the “Impurities: Related Compound D” value is listed as 0.01%. The “Impurities: Total” value (after Dry Heat Sterilization) is given as 0.43%. Further, under setting [1], the “Impurities: Any individual impurity” value is reported as 0.73%, the “Impurities: Related Compound B” value is 0.4%, the “Impurities: Related Compound C” value is 0.06% and the “Impurities: Related Compound D” value was 0.01%. For the same compound, the “Impurities: Total” value under setting [1] came to 1.98%.
